Experimental data from article PMC7180491, “Synthesis and Biological Evaluation of Novel (thio)semicarbazone-Based Benzimidazoles as Antiviral Agents against Human Respiratory Viruses” (Molecules, 2020).
“Also recorded” adds a separate entry of the source. Read-outs that look alike come from different tables or passages of the source.

Columns and labels:
[1] = test system: Respiratory syncytial virus (RSV; strain Long); assay: microbe, parasite or virus in culture; type: cell-based
[2] = test system: Influenza A/H1N1 (A/Ned/378/05); assay: microbe, parasite or virus in culture; type: cell-based, human influenza virus; conditions: read-out: Antiviral EC50 Influenza A/H1N1
[3] = test system: Influenza A/H3N2 (A/HK/7/87); assay: microbe, parasite or virus in culture; type: cell-based, human influenza virus; conditions: read-out: Antiviral EC50 Influenza A/H3N2
human coronavirus 229E = assay: Antiviral assay against human coronavirus 229E in HEL cells, MTS readout; type: cell-based
in vitro [4] = conditions: human
in vitro [5] = conditions: human; remark: listed apart in the source
in vitro [6] = conditions: African green monkey
in vitro [7] = conditions: dog
[8] = test system: four mammalian cell lines
[9] = test system: Respiratory syncytial virus (RSV; strain Long); type: cell-based; conditions: read-out: Anti-RSV EC50, microscopic method
[10] = human respiratory syncytial virus, HEp-2, read-out: Antiviral EC50 RSV
[11] = Human coronavirus 229E, MTS assay, HEL cells

**Q.** For `CC(=NNC(N)=O)c1ccc2c(c1)nc(Cn1nc3ccccc3n1)n2CCN(C)C`, which melting point is on record?
**A.** 209 to 212 °C

**Q.** For `CC(=NNC(N)=O)c1ccc2c(c1)nc(Cc1ccc(Cl)cc1)n2CCCN(C)C`, which melting point is on record?
**A.** 211 to 212.5 °C

**Q.** What does the source list for `CCN(CC)CCCn1c(Cc2ccccc2)nc2cc(C(C)=NNC(N)=S)ccc21` [Compound 8, 2-(1-{2-Benzyl-1-[3-(N,N-diethylamino)propyl]-1H-benzo[d]imidazol-5-yl}ethylidene)-hydrazine-1-carbothioamide]?
**A.** EC50 [1, 10]: > 100 µM; EC50 ([2]; Influenza A virus, H1N1, MDCK): 38 µM; EC50 ([3]; Influenza A virus, H3N2, MDCK): > 100 µM; EC50 (human coronavirus 229E; [11]): 56 µM; CC50 (in vitro [4]): > 100 µM; CC50 (in vitro [5]): > 100 µM; CC50 (in vitro [6]): 44 µM; CC50 (in vitro [7]): > 100 µM

**Q.** With `CCN(CC)CCCn1c(Cc2ccc(OC)cc2)nc2cc(C(C)=NNC(N)=S)ccc21` as the molecule, how does the melting point read?
**A.** 180.7 to 182.9 °C

**Q.** What does the source list for `CC(=O)N[C@H]1[C@H]([C@H](O)[C@H](O)CO)OC(C(=O)O)=C[C@@H]1N=C(N)N` [Zanamivir, reference compound]?
**A.** EC50 ([2]; Influenza A virus, H1N1, MDCK): 0.6 µM; EC50 ([3]; Influenza A virus, H3N2, MDCK): 31 µM; CC50 (in vitro [7]): > 100 µM

**Q.** With `CC(=NNC(N)=S)c1ccc2c(c1)nc(Cc1ccc(Cl)cc1)n2CCCN(C)C` [Compound 4, 2-{1-[2-(4-Chlorobenzyl)-1-[3-(N,N-dimethylamino)propyl]-1H-benzo[d]imidazol-5-yl]-ethylidene}hydrazine-1-carbothioamide] as the molecule, how does the “Anti-RSV activity (in words)” value [1] read?
**A.** poorly effective; also recorded: inactive

**Q.** What about the melting point of the same molecule?
**A.** 110 to 111 °C

**Q.** For `CCN(CC)CCCn1c(Cc2ccc(OC)cc2)nc2cc(C(C)=NNC(N)=O)ccc21` [Compound 17, 2-(1-{1-[3-(N,N-Diethylamino)propyl]-2-(4-methoxybenzyl)-1H-benzo[d]imidazol-5-yl}-ethylidene)hydrazine-1-carboxamide], which EC50 [1, 10] is on record?
**A.** > 100 µM

**Q.** And the EC50 ([2]; Influenza A virus, H1N1, MDCK)?
**A.** 47 µM

**Q.** What about the EC50 ([3]; Influenza A virus, H3N2, MDCK) of the same molecule?
**A.** > 100 µM

**Q.** What about the EC50 (human coronavirus 229E; [11]) of the same molecule?
**A.** 41 µM

**Q.** And the melting point?
**A.** 190 to 192 °C

**Q.** What about the “Cytotoxicity (in words)” value [8] of the same molecule?
**A.** produced cytotoxicity in two of the four cell lines

**Q.** And the CC50 (in vitro [6])?
**A.** 43 µM

**Q.** And the CC50 (in vitro [7])?
**A.** > 100 µM

**Q.** For `NC(=O)c1ncn([C@@H]2O[C@H](CO)[C@@H](O)[C@H]2O)n1` [Ribavirin, reference compound], which EC50 [1, 10] is on record?
**A.** 6.7 µM

**Q.** And the EC50 ([2]; Influenza A virus, H1N1, MDCK)?
**A.** 7.4 µM

**Q.** What about the EC50 ([3]; Influenza A virus, H3N2, MDCK) of the same molecule?
**A.** 7.5 µM

**Q.** And the CC50 (in vitro [4])?
**A.** > 250 µM

**Q.** What about the CC50 (in vitro [6]) of the same molecule?
**A.** > 250 µM

**Q.** Which EC50 [1, 10] does the source give for `CCN(CC)CCCn1c(Cc2ccccc2)nc2cc(C(C)=NNC(N)=O)ccc21` [Compound 16, 2-(1-{1-[3-(N,N-Diethylamino)propyl]-2-benzyl-1H-benzo[d]imidazol-5-yl}ethylidene)-hydrazine-1-carboxamide] here?
**A.** > 100 µM

**Q.** What about the EC50 ([2]; Influenza A virus, H1N1, MDCK) of the same molecule?
**A.** 47 µM

**Q.** What about the EC50 ([3]; Influenza A virus, H3N2, MDCK) of the same molecule?
**A.** > 100 µM

**Q.** What about the EC50 (human coronavirus 229E; [11]) of the same molecule?
**A.** 39 µM

**Q.** And the CC50 (in vitro [4])?
**A.** > 100 µM

**Q.** What about the CC50 (in vitro [5]) of the same molecule?
**A.** > 100 µM

**Q.** What about the CC50 (in vitro [6]) of the same molecule?
**A.** > 100 µM

**Q.** And the CC50 (in vitro [7])?
**A.** > 100 µM

**Q.** For `CC(=NNC(N)=S)c1ccc2c(c1)nc(Cn1nc3ccccc3n1)n2CCN(C)C`, which melting point is on record?
**A.** 214 to 217 °C

**Q.** Which EC50 ([1]; read-out: Antiviral EC50 RSV) does the source give for “2-(1-{2-[(2H-Benzo[d][1,2,3]triazol-1-yl)methyl]-1-[3-(N,N-dimethylamino)propyl]-1H-benzo[d]imidazol-5-yl}ethylidene)hydrazine-1-carbothioamide [Compound 22]” here?
**A.** 7 µM

**Q.** What about the EC50 [2] of the same molecule?
**A.** 41 µM

**Q.** And the EC50 [3]?
**A.** > 100 µM

**Q.** What about the EC50 (human coronavirus 229E) of the same molecule?
**A.** > 100 µM

**Q.** And the EC50 [9]?
**A.** 8.9 µM

**Q.** What about the CC50 (Hep-2 cells) of the same molecule?
**A.** > 100 µM

**Q.** And the CC50 (HEL cells)?
**A.** 100 µM

**Q.** What about the CC50 (Vero cells) of the same molecule?
**A.** > 100 µM

**Q.** And the CC50 (MDCK cells)?
**A.** > 100 µM

**Q.** With `CC(=NNC(N)=S)c1ccc2c(c1)nc(Cn1nc3ccccc3n1)n2CCCN(C)C` [Compound 19, 2-(1-{2-[(2H-Benzo[d][1,2,3]triazol-2-yl)methyl]-1-[3-(N,N-dimethylamino)propyl]-1H-benzo[d]imidazol-5-yl}ethylidene)hydrazine-1-carbothioamide] as the molecule, how does the “Anti-RSV activity (in words)” value [1] read?
**A.** inactive

**Q.** What about the melting point of the same molecule?
**A.** 212 to 214 °C

**Q.** For “2-(1-{2-[(2H-Benzo[d][1,2,3]triazol-2-yl)methyl]-1-[3-(N,N-diethylamino)propyl]-1H-benzo[d]imidazol-5-yl}ethylidene)hydrazine-1-carbothioamide [Compound 21]”, which “Anti-RSV activity (in words)” value [1] is on record?
**A.** inactive

**Q.** With “dextran sulfate MW 10,000 [DS-10,000, reference compound]” as the molecule, how does the “Antiviral EC50 RSV” value [1] read?
**A.** 0.01 µg/mL

B1: UDA: UDA lectin, reference in the coronavirus 229E assay (protein, UniProt P11218 24-372, looked up)
Lectin/endochitinase 1: QRCGSQGGGGTCPALWCCSIWGWCGDSEPYCGRTCENKCWSGERSDHRCGAAVGNPPCGQDRCCSVHGWCGGGNDYCSGSKCQYRCSSSVRGPRVALSGNSTANSIGNVVVTEPLFDQMFSHRKDCPSQGFYSYHSFLVAAESFPAFGTIGDVATRKREVAAFLAHISQATSGERSDVENPHAWGLCHINTTTVTENDFCTSSDWPCAAGKKYSPRGPIQLTHNFNYGLAGQAIGEDLIQNPDLVEKDPIISFKTALWFWMSQHDNKPSCHDIVLNANSAANRIPNKGVIGNIISRAFGHDDFAVRSSSIGFYKRYCDMLGVSYGHDLKYWFDNTPSSEFQRIQMRVAA
**Q.** Which “Antiviral EC50 Coronavirus 229E” value (human coronavirus 229E) does the source give for B1 here?
**A.** 2.2 µg/mL

**Q.** And the “CC50 HEL” value (HEL cells)?
**A.** >100 µg/mL
